Assay results from doi:10.1101/2021.04.08.439011v1 (biorxiv, 2021).
Where two headings read alike, the source gives them in different places.

Key:
PRKCH = PRKCH (Homo sapiens, UniProt P24723); conditions: 1 µM; binder
CSNK2A1 = CSNK2A1 (Homo sapiens, UniProt P68400); conditions: 1 µM; binder
CLK1 = CLK1 (Homo sapiens, UniProt P49759); conditions: 1 µM; binder
MKK7 = MKK7 (Homo sapiens, UniProt O14733); conditions: 1 µM; binder
HPK1 = HPK1 (Homo sapiens, UniProt Q92918); conditions: 1 µM; binder
CDK2 = CDK2 (Homo sapiens, UniProt P24941); conditions: 1 µM; binder
FLT3(D835Y) = FLT3(D835Y) (Homo sapiens, UniProt P36888, D835Y); conditions: 1 µM; binder
MAP3K1 = MAP3K1 (Homo sapiens, UniProt Q13233); conditions: 1 µM; binder
Sequence of MAP3K1 (Q13233 whole entry): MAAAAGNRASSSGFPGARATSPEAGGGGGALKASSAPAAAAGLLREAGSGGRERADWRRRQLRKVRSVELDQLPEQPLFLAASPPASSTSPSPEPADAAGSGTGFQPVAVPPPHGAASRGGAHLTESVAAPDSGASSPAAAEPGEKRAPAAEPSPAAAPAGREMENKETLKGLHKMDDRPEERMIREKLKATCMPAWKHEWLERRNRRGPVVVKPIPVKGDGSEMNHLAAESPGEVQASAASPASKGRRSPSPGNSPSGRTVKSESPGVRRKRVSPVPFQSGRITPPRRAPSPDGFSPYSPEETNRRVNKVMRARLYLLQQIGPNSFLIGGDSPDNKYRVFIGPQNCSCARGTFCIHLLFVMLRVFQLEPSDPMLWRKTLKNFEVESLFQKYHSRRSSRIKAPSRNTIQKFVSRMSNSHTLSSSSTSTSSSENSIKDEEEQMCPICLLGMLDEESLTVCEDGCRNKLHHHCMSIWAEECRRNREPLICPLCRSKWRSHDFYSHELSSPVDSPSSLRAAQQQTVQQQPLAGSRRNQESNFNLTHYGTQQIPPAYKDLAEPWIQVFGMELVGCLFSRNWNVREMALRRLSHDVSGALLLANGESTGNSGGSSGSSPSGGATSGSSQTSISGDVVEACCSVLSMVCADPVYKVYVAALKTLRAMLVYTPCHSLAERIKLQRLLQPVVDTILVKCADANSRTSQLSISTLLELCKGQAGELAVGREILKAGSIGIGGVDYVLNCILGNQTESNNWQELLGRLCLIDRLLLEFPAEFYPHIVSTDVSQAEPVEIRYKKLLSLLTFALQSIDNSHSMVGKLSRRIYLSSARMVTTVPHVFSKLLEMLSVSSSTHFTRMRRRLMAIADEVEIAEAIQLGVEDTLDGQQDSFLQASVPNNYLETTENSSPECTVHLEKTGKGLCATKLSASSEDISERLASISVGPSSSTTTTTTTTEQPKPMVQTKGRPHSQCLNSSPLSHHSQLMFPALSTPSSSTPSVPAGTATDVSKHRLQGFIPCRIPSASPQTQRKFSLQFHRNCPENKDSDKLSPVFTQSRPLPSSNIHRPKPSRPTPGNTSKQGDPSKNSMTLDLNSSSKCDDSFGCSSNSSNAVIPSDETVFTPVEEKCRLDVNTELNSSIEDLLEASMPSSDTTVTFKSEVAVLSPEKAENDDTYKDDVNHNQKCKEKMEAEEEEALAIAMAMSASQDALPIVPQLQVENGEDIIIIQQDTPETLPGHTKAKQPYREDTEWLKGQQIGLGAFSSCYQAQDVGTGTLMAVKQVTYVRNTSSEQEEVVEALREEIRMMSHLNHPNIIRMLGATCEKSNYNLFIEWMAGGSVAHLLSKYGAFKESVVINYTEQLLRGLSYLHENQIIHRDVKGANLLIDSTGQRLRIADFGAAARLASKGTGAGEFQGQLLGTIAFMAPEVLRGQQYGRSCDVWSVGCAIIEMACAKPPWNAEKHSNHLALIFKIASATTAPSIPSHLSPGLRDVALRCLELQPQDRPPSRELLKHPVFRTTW

MRCKA = MRCKA (Homo sapiens, UniProt Q5VT25); conditions: 1 µM; binder
CDK5 = CDK5 (Homo sapiens, UniProt Q00535); conditions: 1 µM; binder
MST2 = MST2 (Homo sapiens, UniProt Q13188); conditions: 1 µM; binder
GRK3 = GRK3 (Homo sapiens, UniProt P35626); conditions: 1 µM; binder
RPS6KA3 = RPS6KA3 (Homo sapiens, UniProt P51812); conditions: binder
Sequence of RPS6KA3 (P51812 whole entry): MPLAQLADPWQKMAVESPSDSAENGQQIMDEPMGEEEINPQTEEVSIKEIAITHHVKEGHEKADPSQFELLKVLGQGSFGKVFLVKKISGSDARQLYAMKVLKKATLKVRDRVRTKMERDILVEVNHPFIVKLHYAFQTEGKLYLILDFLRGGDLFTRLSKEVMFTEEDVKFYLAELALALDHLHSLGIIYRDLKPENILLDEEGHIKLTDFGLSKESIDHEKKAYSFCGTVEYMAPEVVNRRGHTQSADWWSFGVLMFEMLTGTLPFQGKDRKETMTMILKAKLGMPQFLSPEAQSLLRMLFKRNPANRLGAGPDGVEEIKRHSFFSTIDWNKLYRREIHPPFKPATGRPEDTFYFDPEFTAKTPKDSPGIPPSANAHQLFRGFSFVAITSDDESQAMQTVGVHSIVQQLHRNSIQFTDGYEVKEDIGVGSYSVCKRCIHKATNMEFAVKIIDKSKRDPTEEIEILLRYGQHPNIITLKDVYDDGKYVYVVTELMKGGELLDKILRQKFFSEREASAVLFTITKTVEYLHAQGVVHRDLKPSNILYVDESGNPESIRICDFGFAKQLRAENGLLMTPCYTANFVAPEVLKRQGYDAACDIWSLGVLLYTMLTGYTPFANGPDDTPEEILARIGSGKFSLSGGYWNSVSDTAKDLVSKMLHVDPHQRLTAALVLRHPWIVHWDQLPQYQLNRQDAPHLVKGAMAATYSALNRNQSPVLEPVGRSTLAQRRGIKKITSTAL

PIK3C2B = PIK3C2B (Homo sapiens, UniProt O00750); conditions: 1 µM; binder
MAP3K14 = MAP3K14 (Homo sapiens, UniProt Q99558); conditions: 1 µM; binder
MARK4 = MARK4 (Homo sapiens, UniProt Q96L34); conditions: 1 µM; binder
ABL1(Y253F) = ABL1(Y253F) (Homo sapiens, UniProt P00519, Y253F); conditions: phosphorylated; 1 µM; binder
MET(M1250T) = MET(M1250T) (Homo sapiens, UniProt P08581, M1250T); conditions: 1 µM; binder
AMPK-alpha2 = AMPK-alpha2 (Homo sapiens, UniProt P54646); conditions: 1 µM; binder
Sequence of AMPK-alpha2 (P54646 whole entry): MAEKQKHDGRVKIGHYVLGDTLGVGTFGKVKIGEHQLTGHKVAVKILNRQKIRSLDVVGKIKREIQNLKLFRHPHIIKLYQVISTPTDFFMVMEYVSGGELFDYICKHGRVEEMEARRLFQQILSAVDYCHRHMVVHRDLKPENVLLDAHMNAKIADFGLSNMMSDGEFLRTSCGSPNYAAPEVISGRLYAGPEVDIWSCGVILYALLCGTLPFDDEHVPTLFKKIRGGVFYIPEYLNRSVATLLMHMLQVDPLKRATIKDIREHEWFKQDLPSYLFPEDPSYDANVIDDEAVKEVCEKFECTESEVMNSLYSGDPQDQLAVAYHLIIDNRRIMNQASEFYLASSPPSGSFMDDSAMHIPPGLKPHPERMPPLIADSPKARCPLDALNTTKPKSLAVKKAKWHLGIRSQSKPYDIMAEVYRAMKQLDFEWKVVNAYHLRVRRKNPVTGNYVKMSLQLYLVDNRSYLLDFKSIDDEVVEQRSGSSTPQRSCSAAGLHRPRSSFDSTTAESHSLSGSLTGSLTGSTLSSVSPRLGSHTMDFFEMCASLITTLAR

EPHA6 = EPHA6 (Homo sapiens, UniProt Q9UF33); conditions: 1 µM; binder
PIK3CG = PIK3CG (Homo sapiens, UniProt P48736); conditions: 1 µM; binder
MLK2 = MLK2 (Homo sapiens, UniProt Q02779); conditions: 1 µM; binder
BLK = BLK (Homo sapiens, UniProt P51451); conditions: 1 µM; binder
Sequence of BLK (P51451 whole entry): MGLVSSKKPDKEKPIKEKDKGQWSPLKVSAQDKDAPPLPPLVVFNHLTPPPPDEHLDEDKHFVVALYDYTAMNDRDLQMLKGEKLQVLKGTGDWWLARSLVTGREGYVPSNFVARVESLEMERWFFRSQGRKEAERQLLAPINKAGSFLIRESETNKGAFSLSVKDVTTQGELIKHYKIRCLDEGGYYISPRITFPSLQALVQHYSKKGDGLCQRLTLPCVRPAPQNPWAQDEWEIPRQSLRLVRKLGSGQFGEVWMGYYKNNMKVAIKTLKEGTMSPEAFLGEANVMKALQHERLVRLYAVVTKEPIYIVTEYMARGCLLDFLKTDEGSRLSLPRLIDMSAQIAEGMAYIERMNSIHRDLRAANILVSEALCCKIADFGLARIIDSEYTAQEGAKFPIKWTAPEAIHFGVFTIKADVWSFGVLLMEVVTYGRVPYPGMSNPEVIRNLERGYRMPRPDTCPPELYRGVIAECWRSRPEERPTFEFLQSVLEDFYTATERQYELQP

MST1 = MST1 (Homo sapiens, UniProt Q13043); conditions: 1 µM; binder
Sequence of MST1 (Q13043 whole entry): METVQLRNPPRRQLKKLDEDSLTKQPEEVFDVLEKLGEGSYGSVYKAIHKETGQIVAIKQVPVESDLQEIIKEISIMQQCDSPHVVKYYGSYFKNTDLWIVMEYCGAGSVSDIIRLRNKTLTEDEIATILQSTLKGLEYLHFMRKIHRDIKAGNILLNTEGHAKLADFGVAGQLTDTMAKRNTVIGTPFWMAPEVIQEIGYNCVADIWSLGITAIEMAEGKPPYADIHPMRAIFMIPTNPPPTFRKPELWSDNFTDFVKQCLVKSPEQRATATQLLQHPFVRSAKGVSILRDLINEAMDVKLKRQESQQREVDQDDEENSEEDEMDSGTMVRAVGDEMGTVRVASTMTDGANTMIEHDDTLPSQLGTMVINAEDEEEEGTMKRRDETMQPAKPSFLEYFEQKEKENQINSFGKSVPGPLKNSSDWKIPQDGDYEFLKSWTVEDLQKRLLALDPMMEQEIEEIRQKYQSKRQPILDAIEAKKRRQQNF

NDR1 = NDR1 (Homo sapiens, UniProt Q15208); conditions: 1 µM; binder
PIK3CA(E545A) = PIK3CA(E545A) (Homo sapiens, UniProt P42336, E545A); conditions: 1 µM; binder
JAK2 = JAK2 (Homo sapiens, UniProt O60674); conditions: JH1 domain catalytic; binder
Sequence of JAK2 (O60674 whole entry, the tested form may be a part): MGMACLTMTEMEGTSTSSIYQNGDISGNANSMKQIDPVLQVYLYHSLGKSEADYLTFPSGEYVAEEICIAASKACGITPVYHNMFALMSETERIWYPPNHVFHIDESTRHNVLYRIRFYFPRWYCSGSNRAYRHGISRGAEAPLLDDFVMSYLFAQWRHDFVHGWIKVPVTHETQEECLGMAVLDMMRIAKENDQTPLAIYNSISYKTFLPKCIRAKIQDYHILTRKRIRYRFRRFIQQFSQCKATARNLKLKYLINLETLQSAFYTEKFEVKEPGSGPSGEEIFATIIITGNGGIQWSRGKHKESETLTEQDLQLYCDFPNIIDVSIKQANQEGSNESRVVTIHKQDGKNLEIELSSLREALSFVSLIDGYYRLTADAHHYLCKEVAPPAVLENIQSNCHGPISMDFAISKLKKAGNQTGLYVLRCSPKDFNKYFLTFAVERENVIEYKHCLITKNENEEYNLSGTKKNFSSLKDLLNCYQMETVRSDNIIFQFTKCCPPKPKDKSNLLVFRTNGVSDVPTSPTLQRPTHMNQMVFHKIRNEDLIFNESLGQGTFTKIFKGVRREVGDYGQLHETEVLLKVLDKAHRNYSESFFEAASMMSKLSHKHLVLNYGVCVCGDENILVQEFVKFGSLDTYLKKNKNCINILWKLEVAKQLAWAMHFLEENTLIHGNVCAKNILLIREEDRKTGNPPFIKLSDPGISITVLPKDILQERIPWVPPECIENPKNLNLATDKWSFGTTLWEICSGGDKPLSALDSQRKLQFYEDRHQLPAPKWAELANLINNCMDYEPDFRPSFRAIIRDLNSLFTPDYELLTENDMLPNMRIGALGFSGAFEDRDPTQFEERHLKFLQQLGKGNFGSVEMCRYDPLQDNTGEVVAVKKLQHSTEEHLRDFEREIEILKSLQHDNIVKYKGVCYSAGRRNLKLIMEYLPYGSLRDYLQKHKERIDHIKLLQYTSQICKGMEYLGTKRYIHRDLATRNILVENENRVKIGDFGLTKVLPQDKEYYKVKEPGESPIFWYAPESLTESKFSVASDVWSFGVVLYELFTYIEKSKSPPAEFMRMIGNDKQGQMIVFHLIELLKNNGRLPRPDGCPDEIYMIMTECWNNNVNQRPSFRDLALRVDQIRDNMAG

PIK3CD = PIK3CD (Homo sapiens, UniProt O00329); conditions: 1 µM; binder
PRKCQ = PRKCQ (Homo sapiens, UniProt Q04759); conditions: 1 µM; binder
CAMK1D = CAMK1D (Homo sapiens, UniProt Q8IU85); conditions: 1 µM; binder

## CNc1ncc2cc(-c3ccc(-c4cccc(C)n4)cc3Cl)c(=O)n(C[C@H]3OC[C@H](N)CO3)c2n1 [compound 6, G-5555]
PRKCH
  Percent Control: 78%
CSNK2A1
  Percent Control: 98%
CLK1
  Percent Control: 100%
MKK7
  Percent Control: 77%
HPK1
  Percent Control: 26%
CDK2
  Percent Control: 100%
FLT3(D835Y)
  Percent Control: 81%
MAP3K1
  Percent Control: 98%
MRCKA
  Percent Control: 70%
CDK5
  Percent Control: 98%
MST2
  Percent Control: 27%
GRK3
  Percent Control: 72%
RPS6KA3; Kin.Dom.1 N-terminal
  Percent Control: 65%
RPS6KA3; Kin.Dom.2 C-terminal, 1 µM
  Percent Control: 63%
PIK3C2B
  Percent Control: 100%
MAP3K14
  Percent Control: 100%
MARK4
  Percent Control: 100%
ABL1(Y253F)
  Percent Control: 100%
MET(M1250T)
  Percent Control: 45%
AMPK-alpha2
  Percent Control: 47%
EPHA6
  Percent Control: 100%
PIK3CG
  Percent Control: 93%
MLK2
  Percent Control: 88%
BLK
  Percent Control: 99%
MST1
  Percent Control: 51%
NDR1
  Percent Control: 70%
PIK3CA(E545A)
  Percent Control: 90%
JAK2
  Percent Control: 83%
PIK3CD
  Percent Control: 97%
PRKCQ
  Percent Control: 55%
CAMK1D
  Percent Control: 2.5%
